Experimental findings from paper PMC3479139, “Diverse Small Molecule Inhibitors of Human Apurinic/Apyrimidinic Endonuclease APE1 Identified from a Screen of a Large Public Collection” (PLoS ONE, 2012) are described below.

In assay [1] the target is T1, APE1 (Homo sapiens, UniProt P27695).
T1 construct: made in house
Put plainly: Fluorogenic kinetic qHTS APE1 incision assay (primary screen and retest of cherrypicked samples).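 Note: purified APE1 cleaving a fluorophore/dark-quencher labelled 17-mer duplex DNA bearing a tetrahydrofuran AP site, fluorescence rise followed kinetically over the first 2 min, inhibition normalized to controls.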 Type of assay: biochemical.
Description: All screening operations were performed on a fully integrated robotic system (Kalypsys, San Diego, CA) [28] with library plates screened proceeding from the lowest to the highest concentration to minimize compound carryover [26]. Vehicle-only plates, with DMSO being pin-transferred to the entire column 5–48 compound area, were included regularly throughout the screen in order to record any systematic shifts in assay signal. During the screen, reagent bottles were kept at 4°C and all liquid lines were covered with aluminum foil to minimize degradation.
Screening data were corrected and normalized, and concentration–effect relationships was derived using in-house developed algorithms [25].
To screen for inhibitors of APE1 incision activity, we employed a purified-enzyme biochemical assay with a model substrate featuring a red-shifted fluorescent reporter in combination with a dark non-emitting quencher. These moieties were incorporated as end labels onto a 17-mer double-stranded DNA fragment containing a centrally-located tetrahydrofuran AP site sugar mimetic, which serves as the APE1 cleavage site. Upon APE1-catalyzed strand scission immediately 5′ to the AP site analog, the shortened oligodeoxynucleotide carrying the fluorescent reporter spontaneously dissociates from the rest of the substrate, leading to an increase in fluorescence due to its spatial separation from the dark quencher (Figure 1A).
Using a high-speed whole-plate fluorescence imager, the assay data for the entire screen was conducted in kinetic mode, with the APE1 incision reaction being monitored over the initial linear time frame of 2 min (Figure 1B). Thus, any inhibition associated with each sample was computed from the alteration in fluorescence intensity over the time-course measurement period, after normalization against the appropriate controls (Figure 1B, inset).

For assay [2], the target named is T1, APE1. Put plainly: Gel-based radiotracer (32P) APE1 incision assay.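 Note: APE1 incision reactions ran 5 min at 37 °C, with cleaved product and intact substrate resolved electrophoretically.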 The format is biochemical. Also noted: concentration or dose not given beside the values. Conditions: percent incision shown; entries 1-112.
The target of assay [3] is T1, APE1. Put plainly: Fluorescence polarization (FP) displacement assay of APE1 binding to AP-DNA probe.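 Note: TAMRA 5′-labeled duplex DNA with THF abasic site (5 nM) and APE1 (20 nM), Mg2+-free buffer, 15 min at room temperature, inhibition seen as lowered polarization.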 As to conditions: read-out: FP IC50.
Assay [4] concerns the target double-stranded 17-mer DNA fragment. Put plainly: ThO (Thiazole Orange) DNA displacement assay.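 Note: miniaturized displacement of the intercalating dye from unlabeled duplex DNA, used to flag nonspecific DNA binders, chiefly intercalators, groove binders may be missed.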 As to conditions: read-out: ThO-DNA binding IC50. Type of assay: binding.
The next assay concerns the target T2, E. coli Endo IV (Escherichia coli, UniProt P0A6C1).
T2 construct: made in house
The assay can be described thus: E. coli Endo IV profiling counterscreen.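 Note: selectivity counterscreen of candidate APE1 inhibitors against the bacterial endonuclease Endo IV, run in the same assay format as the primary APE1 high-throughput screen.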 Type of assay: biochemical. Conditions: read-out: EndoIV IC50.

[5] abbreviates: initial quantitative high-throughput screen, read-out: APE1 qHTS IC50.
[6] abbreviates: retest of cherrypicked sample, read-out: APE1 Retest IC50.

T1 sequence (P27695 whole entry): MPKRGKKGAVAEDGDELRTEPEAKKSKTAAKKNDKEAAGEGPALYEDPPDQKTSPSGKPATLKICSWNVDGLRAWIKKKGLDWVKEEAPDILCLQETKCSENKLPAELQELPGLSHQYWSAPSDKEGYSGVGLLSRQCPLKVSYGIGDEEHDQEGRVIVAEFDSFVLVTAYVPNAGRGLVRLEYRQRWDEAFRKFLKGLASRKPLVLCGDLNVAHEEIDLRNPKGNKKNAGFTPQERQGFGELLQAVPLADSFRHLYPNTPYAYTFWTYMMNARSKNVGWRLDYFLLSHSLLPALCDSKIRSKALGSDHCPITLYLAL
Excerpt for E. coli Endo IV: In order to screen out nonselective compounds, such as non-specific DNA binders and inhibitors of related enzymes, we used a miniaturized ThO DNA displacement assay and a counterscreen against the bacterial endonuclease E. coli Endo IV, respectively, following the previously published protocols [21].
To probe the selectivity of the candidate APE1 inhibitors, we tested them against E. coli EndoIV [36], employing the same assay as used in the HTS.

Take `CC(=O)c1ccc(NC(=O)c2ccc3nc(-c4ccco4)c(-c4ccco4)nc3c2)cc1` [MLS000534769]: the half-inhibitory concentration (IC50) at APE1 [1] (setting [5]) was 19.9 µM; on APE1 [1] (setting [6]), 4 µM; on APE1 [3], above 57 µM; in assay [4] it was 8.9 µM; at E. coli Endo IV, 10 µM. Besides, the “Radiotracer Assay (%Activity)” value at APE1 [2] is on record as 11%.
With `CCCSC1=N/C(=C\C=C\c2ccco2)C(=O)S1` [MLS000114057], the IC50 at APE1 [1] (setting [5]) is 4 µM; on APE1 [1] (setting [6]), 17.8 µM; at APE1 [3] it was above 57 µM; in assay [4] it was above 57 µM; at E. coli Endo IV it was above 57 µM. In addition, the “Radiotracer Assay (%Activity)” value at APE1 [2] is recorded as 40%.
For `Cn1cnnc1SCC(=O)Nc1nc(-c2ccccc2)cs1` [MLS000711532], the IC50 on APE1 [1] (setting [5]) is 28.2 µM; on APE1 [1] (setting [6]) it was 10 µM; at APE1 [3], above 57 µM; in assay [4] it was above 57 µM; on E. coli Endo IV it was above 57 µM. Moreover, the “Radiotracer Assay (%Activity)” value at APE1 [2] was 32%.
In the case of `CC1OC(OCC2OC(Oc3c(-c4ccc(O)cc4)oc4cc(O)cc(O)c4c3=O)C(O)C(O)C2O)C(O)C(O)C1O` (stereo not drawn) [MLS000876823], the IC50 on APE1 [1] (setting [5]) is 3.5 µM; at APE1 [1] (setting [6]), 3.1 µM; at APE1 [3], above 57 µM; in assay [4], above 57 µM; at E. coli Endo IV, above 57 µM. On APE1 [2], the “Radiotracer Assay (%Activity)” value is reported as 30%.
Consider `O=C(Nc1ccc2nc(-c3ccco3)c(-c3ccco3)nc2c1)N1CCCCCC1` [MLS000050353], for which the IC50 is 3.5 µM on APE1 [1] (setting [5]); 4 µM on APE1 [1] (setting [6]); 12.6 µM at APE1 [3]; above 57 µM in assay [4]; 15.8 µM at E. coli Endo IV. Moreover, the “Radiotracer Assay (%Activity)” value at APE1 [2] stood at 41%.
Regarding `Cc1cccc(C)c1NC(=O)CSc1nnc(-c2ccco2)c(-c2ccco2)n1` [MLS000556463], the IC50 at APE1 [1] (setting [5]) is 15.6 µM; at APE1 [1] (setting [6]) it was 3.6 µM; at APE1 [3], above 57 µM; in assay [4], above 57 µM; on E. coli Endo IV it was above 57 µM. In addition, the “Radiotracer Assay (%Activity)” value on APE1 [2] is recorded as 43%.
For `COc1ccc2c(c1)c(=O)oc1cc(OCC(=O)NC3CCCCC3)ccc12` [MLS000594161], the IC50 is 11.2 µM at APE1 [1] (setting [5]); 5.6 µM at APE1 [1] (setting [6]); above 57 µM at APE1 [3]; above 57 µM in assay [4]; above 57 µM on E. coli Endo IV. For the same compound, the “Radiotracer Assay (%Activity)” value on APE1 [2] is on record as 38%.
For the compound `COc1ccc(C(CC(=O)N2CCCCC2)c2c(OC)cc(OC)c3c(-c4ccccc4)cc(=O)oc23)cc1` (stereo not drawn) [MLS000879461], the IC50 is 25.1 µM on APE1 [1] (setting [5]); 7.9 µM at APE1 [1] (setting [6]); 14.1 µM on APE1 [3]; above 57 µM in assay [4]; above 57 µM at E. coli Endo IV. Also, the “Radiotracer Assay (%Activity)” value at APE1 [2] is recorded as 24%.
Take `CCn1c(SCC(=O)O)nc2sc3c(c2c1=O)CCC3` [MLS000069140]: the IC50 was 22.4 µM on APE1 [1] (setting [5]); 12.6 µM on APE1 [1] (setting [6]); above 57 µM on APE1 [3]; above 57 µM in assay [4]; above 57 µM on E. coli Endo IV. Also, the “Radiotracer Assay (%Activity)” value at APE1 [2] was 22.3%.
For the compound `CC(=O)NC1=NC(=O)/C(=C/c2cc(C)n(-c3cccc(C(=O)O)c3)c2C)S1` [MLS000673948], the IC50 at APE1 [1] (setting [5]) was 3.5 µM; on APE1 [1] (setting [6]) it was 4.4 µM; at APE1 [3], above 57 µM; in assay [4], above 57 µM; at E. coli Endo IV it was above 57 µM. At APE1 [2], the “Radiotracer Assay (%Activity)” value was found to be 30%.
As for `O=c1cc(-c2ccc(O)cc2)oc2c(C3OCC(O)C(O)C3O)c(O)c(C3OC(CO)C(O)C(O)C3O)c(O)c12` (stereo not drawn) [MLS000876755], the IC50 at APE1 [1] (setting [5]) was 19.9 µM; at APE1 [1] (setting [6]), 4.5 µM; at APE1 [3], above 57 µM; in assay [4], above 57 µM; on E. coli Endo IV it was above 57 µM. The “Radiotracer Assay (%Activity)” value on APE1 [2] was determined as 31%.
Turning to `Cc1cc(/C=C2\C(=O)NC(=O)N(Cc3ccccc3Cl)C2=O)c(C)n1-c1ccc(C(=O)O)cc1` [MLS000627094], the 50% inhibitory concentration (IC50) is 11.2 µM on APE1 [1] (setting [5]); 12.6 µM on APE1 [1] (setting [6]); 15.8 µM on APE1 [3]; above 57 µM in assay [4]; above 57 µM at E. coli Endo IV. For the same compound, on APE1 [2], the “Radiotracer Assay (%Activity)” value came out at 2%.
Turning to `Nc1ccc2c(c1Cl)C(=O)c1ccc(N)c(Cl)c1C2=O` [MLS000737360], the IC50 at APE1 [1] (setting [5]) is 8.9 µM; on APE1 [1] (setting [6]), 6.3 µM; at APE1 [3] it was 7.9 µM; in assay [4], 6.3 µM; on E. coli Endo IV, above 57 µM. Also, at APE1 [2], the “Radiotracer Assay (%Activity)” value turned out to be 17%.
For `Cc1cc(C)c2nc(-c3ccco3)cc(C(=O)O)c2c1` [MLS000703171], the IC50 on APE1 [1] (setting [5]) is 7.1 µM; on APE1 [1] (setting [6]), 12.6 µM; on APE1 [3], above 57 µM; in assay [4] it was above 57 µM; on E. coli Endo IV, above 57 µM. Besides, the “Radiotracer Assay (%Activity)” value at APE1 [2] stood at 23%.
As to `NC(Cc1ccc(O)c(O)c1)C(=O)O` (stereo not drawn) [NCGC00095195], the IC50 at APE1 [1] (setting [5]) was 0.3 µM; on APE1 [1] (setting [6]), 0.1 µM; at APE1 [3] it was above 57 µM; in assay [4], above 57 µM; at E. coli Endo IV it was above 57 µM. Besides, the “Radiotracer Assay (%Activity)” value at APE1 [2] is 28.3%.
`CSC1=N/C(=C\c2ccc(Br)o2)C(=O)S1` [MLS000534059]: the IC50 on APE1 [1] (setting [6]) is 8.9 µM; on APE1 [3] it was above 57 µM; in assay [4] it was above 57 µM; at E. coli Endo IV, above 57 µM. For the same compound, the “Radiotracer Assay (%Activity)” value on APE1 [2] was determined as 36%.
On to `O=c1/c(=C/c2ccco2)sc2nc(-c3ccccc3Br)nn12` [MLS000039532], for which the IC50 on APE1 [1] (setting [5]) is 22.4 µM; on APE1 [1] (setting [6]), 7.9 µM; on APE1 [3], above 57 µM; in assay [4], above 57 µM; at E. coli Endo IV, above 57 µM. For the same compound, the “Radiotracer Assay (%Activity)” value on APE1 [2] worked out at 9%.
Consider `O=C(O)c1ccc(N2C(=O)c3cccc4c(C(=O)O)ccc(c34)C2=O)cc1` [MLS000713642], for which the IC50 at APE1 [1] (setting [5]) was 12.6 µM; on APE1 [1] (setting [6]), 7.9 µM; on APE1 [3], 15.8 µM; in assay [4] it was above 57 µM; on E. coli Endo IV, above 57 µM. Moreover, the “Radiotracer Assay (%Activity)” value at APE1 [2] worked out at 28%.
As for `Nc1ccc(Nc2ccccc2)c(S(=O)(=O)O)c1` [MLS000737782], the IC50 at APE1 [1] (setting [5]) is 14.1 µM; on APE1 [1] (setting [6]), 15.8 µM; on APE1 [3], above 57 µM; in assay [4], above 57 µM; at E. coli Endo IV, above 57 µM. The “Radiotracer Assay (%Activity)” value on APE1 [2] is listed as 9%.
As to `O=C(COC(=O)c1cc2c(s1)CCC2)Nc1ccc(F)cc1` [MLS000334872], the IC50 is 10 µM at APE1 [1] (setting [6]), 12.6 µM at APE1 [3], above 57 µM in assay [4] and above 57 µM at E. coli Endo IV. On APE1 [2], the “Radiotracer Assay (%Activity)” value is 39%.
For the compound `O=C1NN(c2ccccc2)C(=O)/C1=C/c1ccc(-c2ccc(Cl)c(C(=O)O)c2)o1` [MLS000682903], the IC50 at APE1 [1] (setting [5]) was 12.6 µM; at APE1 [1] (setting [6]) it was 15.6 µM; at APE1 [3], 15.8 µM; in assay [4], above 57 µM; on E. coli Endo IV it was above 57 µM. For the same compound, on APE1 [2], the “Radiotracer Assay (%Activity)” value is 37%.
As for `COc1ccc(N2CCN(C(=O)Cc3ccc(S(=O)(=O)N4CCOCC4)s3)CC2)cc1` [MLS000760918], the IC50 was 14.1 µM on APE1 [1] (setting [5]), above 57 µM on APE1 [3], above 57 µM in assay [4] and above 57 µM on E. coli Endo IV. Besides, the “Radiotracer Assay (%Activity)” value at APE1 [2] came to 45%.
